For 24 molecules, IC50 results are on record in patent publication US7601716B2, “Pyridopyrazines and derivatives thereof as ALK and c-Met inhibitors” (Cephalon, Inc., priority 2006, dated 2009).

Where a name gives a salt, the structure may show the parent alone.

In experiment [1] the target is T1, c-Met (cytoplasmic domain) (Homo sapiens, UniProt P08581).
T1 construct: Reactions were initiated with 30 ng/mL c-Met (cytoplasmic domain, Invitrogen Corporation #PV3143); purchased Invitrogen Corporation PV3143
T1 sequence (P08581 956-1390 limits assumed): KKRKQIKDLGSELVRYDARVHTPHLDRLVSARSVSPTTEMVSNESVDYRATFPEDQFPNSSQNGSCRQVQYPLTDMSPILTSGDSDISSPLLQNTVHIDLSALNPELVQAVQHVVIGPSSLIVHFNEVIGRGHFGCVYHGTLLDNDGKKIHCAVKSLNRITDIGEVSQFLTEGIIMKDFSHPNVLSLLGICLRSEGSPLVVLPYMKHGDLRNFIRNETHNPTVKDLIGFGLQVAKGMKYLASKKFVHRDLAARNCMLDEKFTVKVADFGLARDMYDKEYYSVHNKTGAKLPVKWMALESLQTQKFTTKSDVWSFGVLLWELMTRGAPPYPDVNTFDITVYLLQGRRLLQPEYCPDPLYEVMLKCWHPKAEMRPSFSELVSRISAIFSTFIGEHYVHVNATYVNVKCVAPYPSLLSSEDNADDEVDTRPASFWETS
The experiment is described as follows: c-Met Kinase Assay (ELISA/TRF, PLC-γ substrate). Format: biochemical. To be noted: 3 μM ATP (Km level); read-out: c-Met Kinase Inhibition (IC50). The procedure: Example compounds were tested for their ability to inhibit the kinase activity of baculovirus-expressed ALK using a modification of the ELISA protocol reported for trkA in Angeles, T. S. et al., Anal. Biochem. 1996, 236, 49-55, which is incorporated herein by reference in its entirety. Phosphorylation of the substrate, phospholipase C-gamma (PLC-γ) generated as a fusion protein with glutathione S-transferase (GST) as reported in Rotin, D. et al., EMBO J. 1992, 11, 559-567, which is incorporated herein by reference in its entirety, was detected with a europium-labeled anti-phosphotyrosine antibody and measured by time-resolved fluorescence (TRF). Briefly, each 96-well plate was coated with 100 μL/well of 10 μg/mL substrate (phospholipase C-γ) in Tris-buffered saline (TBS). […] The reaction was initiated by adding enzyme (30 ng/ml ALK) and was allowed to proceed at 37° C. for 15 minutes. Detection of the phosphorylated product was performed by adding 100 μl/well of Eu-N1 labeled PT66 antibody (Perkin Elmer # AD0041). Incubation at 37° C. then proceeded for one (1) hour, followed by addition of 100 μL enhancement solution (Wallac #1244-105). The plate was gently agitated and after thirty minutes, the fluorescence of the resulting solution was measured using the EnVision 2100 (or 2102) multilabel plate reader (Perkin Elmer).
Data analysis was performed using ActivityBase (IDBS, Guilford, UK). IC50 values were calculated by plotting percent inhibition versus log10 of the concentration of compound and fitting to the nonlinear regression sigmoidal dose-response (variable slope) equation in XLFit (IDBS, Guilford, UK).
Reactions were initiated with 30 ng/mL c-Met (cytoplasmic domain, Invitrogen Corporation #PV3143).
(In an ELISA, binding on a coated surface is turned into a signal by an enzyme label.)

Experiment [2] concerns the target baculovirus-expressed ALK (Homo sapiens, UniProt Q9UM73). The experiment is described as follows: ALK Kinase Assay (ELISA/TRF, PLC-γ substrate). Note: 1 µM ATP (Km level). Format: biochemical. To be noted: read-out: ALK Kinase Inhibition (IC50). The gist of the method: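 An ELISA adapted from a trkA format was used: wells carried GST-fused PLC-γ substrate, and enzyme addition (30 ng/ml ALK) started a 15-minute reaction at 37° C.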

Chain of baculovirus-expressed ALK (Q9UM73 19-1620): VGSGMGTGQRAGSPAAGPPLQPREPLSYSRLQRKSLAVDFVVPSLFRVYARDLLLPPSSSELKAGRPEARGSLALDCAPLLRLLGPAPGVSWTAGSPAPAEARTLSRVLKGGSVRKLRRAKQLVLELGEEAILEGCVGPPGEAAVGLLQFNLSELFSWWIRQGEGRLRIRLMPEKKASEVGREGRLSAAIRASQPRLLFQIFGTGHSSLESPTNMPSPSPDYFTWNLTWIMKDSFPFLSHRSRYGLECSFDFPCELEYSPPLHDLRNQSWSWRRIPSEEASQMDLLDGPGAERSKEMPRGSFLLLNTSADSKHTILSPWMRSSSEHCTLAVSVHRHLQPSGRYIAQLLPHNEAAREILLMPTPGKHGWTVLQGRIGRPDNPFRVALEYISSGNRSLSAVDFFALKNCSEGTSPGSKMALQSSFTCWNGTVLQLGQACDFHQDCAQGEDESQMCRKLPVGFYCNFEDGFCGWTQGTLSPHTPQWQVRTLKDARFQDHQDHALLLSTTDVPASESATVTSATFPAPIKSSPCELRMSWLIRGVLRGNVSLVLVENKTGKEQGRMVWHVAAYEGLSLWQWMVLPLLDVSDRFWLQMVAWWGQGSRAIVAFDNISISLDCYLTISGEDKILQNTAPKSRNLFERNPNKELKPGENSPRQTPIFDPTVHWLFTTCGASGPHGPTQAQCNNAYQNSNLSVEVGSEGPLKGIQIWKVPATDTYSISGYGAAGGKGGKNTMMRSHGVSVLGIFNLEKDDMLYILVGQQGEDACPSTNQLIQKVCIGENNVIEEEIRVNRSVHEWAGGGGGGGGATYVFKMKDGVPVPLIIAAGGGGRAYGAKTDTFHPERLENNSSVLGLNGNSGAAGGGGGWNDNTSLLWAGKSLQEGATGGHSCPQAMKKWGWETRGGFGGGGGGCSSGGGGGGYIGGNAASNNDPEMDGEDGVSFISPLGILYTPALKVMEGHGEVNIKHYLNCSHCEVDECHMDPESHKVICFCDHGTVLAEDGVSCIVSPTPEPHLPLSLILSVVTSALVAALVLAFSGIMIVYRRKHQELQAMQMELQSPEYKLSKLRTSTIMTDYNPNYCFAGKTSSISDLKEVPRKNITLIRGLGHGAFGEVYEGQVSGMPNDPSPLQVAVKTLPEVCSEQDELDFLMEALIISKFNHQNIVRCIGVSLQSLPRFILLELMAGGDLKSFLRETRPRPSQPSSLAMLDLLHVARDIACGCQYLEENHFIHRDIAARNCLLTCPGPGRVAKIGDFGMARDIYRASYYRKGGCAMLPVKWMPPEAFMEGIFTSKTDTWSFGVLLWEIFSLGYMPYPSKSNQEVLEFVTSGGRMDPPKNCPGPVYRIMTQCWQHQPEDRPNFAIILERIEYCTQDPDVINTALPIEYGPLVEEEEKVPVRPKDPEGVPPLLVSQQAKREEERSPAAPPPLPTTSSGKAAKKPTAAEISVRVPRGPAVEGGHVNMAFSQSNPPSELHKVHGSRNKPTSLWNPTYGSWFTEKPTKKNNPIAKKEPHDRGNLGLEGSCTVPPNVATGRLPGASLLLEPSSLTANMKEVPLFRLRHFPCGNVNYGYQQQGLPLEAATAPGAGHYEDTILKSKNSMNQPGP

As usually defined, the IC50 is the midpoint of a concentration-inhibition curve. As to `FC(F)(F)c1ccc(Cl)cc1CN1CCNc2ncc(-c3cc[nH]c3)cc21` [Example 202, 1-[5-Chloro-2-(trifluoromethyl)benzyl]-7-(1H-pyrrol-3-yl)-1,2,3,4-tetrahydro-pyrido[2,3-b]pyrazine], the values for the IC50 in experiment [1] and in experiment [2] were 10 to 100 µM and 0.1 to 1 µM, respectively.

With `O=C(c1cc(F)ccc1F)N1CCNc2ncc(I)cc21` [Example 87, (2,5-Difluorophenyl)-(7-iodo-3,4-dihydro-2H-pyrido[2,3-b]pyrazin-1-yl)methanone], the IC50 in experiment [1] and in experiment [2] was > 100 µM in each case.

For `O=C(c1cnc2c(c1)N(Cc1cc(Cl)ccc1Cl)CCN2)N1CCN(CC2CCCCC2)CC1` [Example 262, [(4-Cyclohexylmethyl)piperazin-1-yl]-[1-(2,5-dichlorobenzyl)-1,2,3,4-tetrahydropyrido[2,3-b]pyrazin-7-yl]methanone], the IC50 was > 100 µM in experiment [1] and 10 to 100 µM in experiment [2].

With `CN1CCN(C(=O)c2ccc(-c3cnc4c(c3)C(Oc3cc(Cl)cc(Cl)c3)CCN4)cc2)CC1` (stereo not drawn) [Example 275, {4-[5-(3,5-Dichlorophenoxy)-5,6,7,8-tetrahydro-[1,8]naphthyridin-3-yl]phenyl}-(4-methylpiperazin-1-yl)methanone], the half-inhibitory concentration (IC50) in experiment [1] was 1 to 10 µM; in experiment [2] it was 10 to 100 µM.

Consider `CN1CCN(C(=O)c2ccc(-c3cnc4c(c3)N(C(=O)c3ccccc3)CCN4)cc2)CC1` [Example 54, {7-[4-(4-Methylpiperazine-1-carbonyl)phenyl]-3,4-dihydro-2H-pyrido[2,3-b]pyrazin-1-yl}phenylmethanone], for which the IC50 is 10 to 100 µM in experiment [1] and > 100 µM in experiment [2].

For `COc1ncc(-c2cnc3c(c2)N(Cc2cc(Cl)ccc2Cl)CCN3)cn1` [Example 129, 1-(2,5-Dichlorobenzyl)-7-(2-methoxypyrimidin-5-yl)-1,2,3,4-tetrahydropyrido[2,3-b]pyrazine], the half-inhibitory concentration (IC50) in experiment [1] was 10 to 100 µM; in experiment [2], 0.1 to 1 µM.

As for `O=C1CNc2ncc(-c3ccc(C(=O)N4CCC[C@H]4CN4CCCC4)cc3)cc2N1Cc1ccccc1` [Example 13, S-1-Benzyl-7-[4-(2-[(pyrrolidin-1-yl)methyl]pyrrolidine-1-carbonyl)phenyl]-3,4-dihydro-1H-pyrido[2,3-b]pyrazin-2-one, trifluoroacetic acid salt], the figures for the IC50 in experiment [1] and in experiment [2] were > 100 µM and 10 to 100 µM, respectively.

With `CC(c1cc(F)ccc1F)N1CCNc2ncc(I)cc21` (stereo not drawn) [Example 153, 1-[1-(2,5-Difluorophenyl)ethyl]-7-iodo-1,2,3,4-tetrahydropyrido[2,3-b]pyrazine], the IC50 in experiment [1] and in experiment [2] was > 100 µM each time.

As to `Fc1ccc(F)c(CN2CCNc3ncc(-c4ccnc(N5CCCC5)c4)cc32)c1Cl` [Example 183, 1-(2-Chloro-3,6-difluorobenzyl)-7-(2-pyrrolidin-1-yl-pyridin-4-yl)-1,2,3,4-tetrahydropyrido[2,3-b]pyrazine], the IC50 in experiment [1] lay within 1 to 10 µM; in experiment [2], 0.1 to 1 µM.

Regarding `O=C(c1cnc2c(c1)N(Cc1cc(Cl)ccc1Cl)CCN2)N1CCN(c2ccccc2C(F)(F)F)CC1` [Example 257, [1-(2,5-Dichlorobenzyl)-1,2,3,4-tetrahydropyrido[2,3-b]pyrazin-7-yl]-[4-(2-(trifluoromethyl)phenyl)piperazin-1-yl]methanone], the figures for the IC50 in experiment [1] and in experiment [2] were > 100 µM and 10 to 100 µM, respectively.

For `O=C(c1cnc2c(c1)N(Cc1cc(Cl)ccc1Cl)CCN2)N1CCN(c2cccc(Cl)c2)CC1` [Example 222, [4-(3-Chlorophenyl)piperazin-1-yl]-[1-(2,5-dichlorobenzyl)-1,2,3,4-tetrahydropyrido[2,3-b]pyrazin-7-yl]methanone], the half-inhibitory concentration (IC50) in experiment [1] and in experiment [2] was 10 to 100 µM each time.

In the case of `O=C(NCc1cccc(Cl)c1)c1cnc2c(c1)N(Cc1cc(Cl)ccc1Cl)CCN2` [Example 228, 1-(2,5-Dichlorobenzyl)-1,2,3,4-tetrahydropyrido[2,3-b]pyrazine-7-carboxylic acid 3-chlorobenzylamide], the IC50 in experiment [1] was in the range of 10 to 100 µM; in experiment [2], 1 to 10 µM.

With `O=C(c1ccc(-c2cnc3c(c2)N(Cc2cc(F)c(F)cc2F)CCN3)cc1)N1CCC[C@H]1CN1CCCC1` [Example 84, ((S)-2-((pyrrolidin-1-yl)methyl)pyrrolidin-1-yl)-{4-[1-(2,4,5-trifluorobenzyl)-1,2,3,4-tetrahydropyrido[2,3-b]pyrazin-7-yl]phenyl}-methanone], the values for the IC50 in experiment [1] and in experiment [2] were 1 to 10 µM and 0.1 to 1 µM, respectively.

With `COc1ccc(CNC(=O)c2cnc3c(c2)N(Cc2cc(Cl)ccc2Cl)CCN3)cc1` [Example 258, 1-(2,5-Dichlorobenzyl)-1,2,3,4-tetrahydropyrido[2,3-b]pyrazine-7-carboxylic acid 4-methoxybenzylamide], the IC50 in experiment [1] is > 100 µM; in experiment [2], 1 to 10 µM.

With `c1ccc(CN2CCNc3ncc(-c4cccnc4)cc32)cc1` [Example 34, 1-Benzyl-7-pyridin-3-yl-1,2,3,4-tetrahydropyrido[2,3-b]pyrazine], the IC50 was in the range of 10 to 100 µM in experiment [1] and 1 to 10 µM in experiment [2].

With `CS(=O)(=O)c1ccc(-c2cnc3c(c2)N(Cc2ccccc2)C(=O)CN3)cc1` [Example 24, 1-Benzyl-7-(4-methanesulfonyl-phenyl)-3,4-dihydro-1H-pyrido[2,3-b]pyrazin-2-one], the IC50 is > 100 µM in experiment [1] and 1 to 10 µM in experiment [2].

Regarding `CC(c1cc(F)c(F)cc1F)N1C(=O)CNc2ncc(-c3ccc(C(=O)N4CCN(C)CC4)cc3)cc21` (stereo not drawn) [Example 146, 7-[4-(4-Methylpiperazine-1-carbonyl)phenyl]-1-[1-(2,4,5-trifluorophenyl)ethyl]-3,4-dihydro-1H-pyrido[2,3-b]pyrazin-2-one, trifluoroacetic acid salt], the IC50 is 10 to 100 µM in experiment [1] and > 100 µM in experiment [2].

Consider `O=C(NCc1csc(-c2ccccc2)n1)c1cnc2c(c1)N(Cc1cc(Cl)ccc1Cl)CCN2` [Example 242, 1-(2,5-Dichlorobenzyl)-1,2,3,4-tetrahydropyrido[2,3-b]pyrazine-7-carboxylic acid (2-phenylthiazol-4-yl-methyl)amide], for which the IC50 was > 100 µM in experiment [1] and 1 to 10 µM in experiment [2].

Regarding `O=C(c1cnc2c(c1)N(Cc1cc(Cl)ccc1Cl)CCN2)N1CCN(C(=O)C2CCCO2)CC1` (stereo not drawn) [Example 252, [1-(2,5-Dichlorobenzyl)-1,2,3,4-tetrahydropyrido[2,3-b]pyrazin-7-yl]-[4-(tetrahydrofuran-2-carbonyl)piperazin-1-yl]methanone], the results for the concentration for half-maximal inhibition (IC50) in experiment [1] and in experiment [2] were > 100 µM and 10 to 100 µM, respectively.

Turning to `COc1ccc(CN2CCN(C(=O)c3cnc4c(c3)N(Cc3cc(Cl)ccc3Cl)CCN4)CC2)cc1` [Example 218, [1-(2,5-Dichlorobenzyl)-1,2,3,4-tetrahydropyrido[2,3-b]pyrazin-7-yl]-[4-(4-methoxybenzyl)piperazin-1-yl]methanone], the half-inhibitory concentration (IC50) in experiment [1] and in experiment [2] was 10 to 100 µM in each case.

`CC(c1cc(F)c(F)cc1F)N1CCNc2ncc(-c3ccc(C(=O)N4CCC[C@H]4CN4CCCC4)cc3)cc21` (stereo partly drawn) [Example 148, S-{2-[(pyrrolidin-1-yl)methyl]pyrrolidin-1-yl}-(4-{1-[1-(2,4,5-trifluorophenyl)ethyl]-1,2,3,4-tetrahydropyrido[2,3-b]pyrazin-7-yl}phenyl)methanone, trifluoroacetic acid salt]: the IC50 lay within 10 to 100 µM in experiment [1] and 0.1 to 1 µM in experiment [2].

Regarding `CN1CCN(C(=O)c2ccc(-c3cnc4c(c3)C(Oc3cc(Cl)ccc3Cl)CCN4)cc2)CC1` (stereo not drawn) [Example 272, {4-[5-(2,5-Dichlorophenoxy)-5,6,7,8-tetrahydro-[1,8]naphthyridin-3-yl]phenyl}-(4-methyl-piperazin-1-yl)methanone], the 50% inhibitory concentration (IC50) in experiment [1] was 1 to 10 µM; in experiment [2] it was 0.1 to 1 µM.

Regarding `O=C(c1cnc2c(c1)N(Cc1cc(Cl)ccc1Cl)CCN2)N1CCC[C@H]1CN1CCCC1` [Example 238, [1-(2,5-Dichlorobenzyl)-1,2,3,4-tetrahydropyrido[2,3-b]pyrazin-7-yl]-((S)-2-pyrrolidin-1-ylmethyl-pyrrolidin-1-yl)methanone], the results for the IC50 in experiment [1] and in experiment [2] were > 100 µM and 1 to 10 µM, respectively.

Take `O=C(O)c1ccc(-c2cnc3c(c2)N(Cc2cc(Cl)ccc2C(F)(F)F)CCN3)cc1` [Example 195, 4-{1-[5-Chloro-2-(trifluoromethyl)benzyl]-1,2,3,4-tetrahydropyrido[2,3-b]pyrazin-7-yl}benzoic acid]: the IC50 in experiment [1] and in experiment [2] was 1 to 10 µM each time.
